Laboratory results: patent US9156834B2, “Derivatives of heteroarylsulfonamides, their preparation and their application in human therapy” (PIERRE FABRE MEDICAMENT, priority 2010, dated 2015)
Counter-ions that a name gives are not always drawn.

molecular target: T1, human isoform of the Kv1.5 channels (Homo sapiens, UniProt P22460); experiment: FLIPR thallium ion measurement on potassium channel Kv1.5; format: cell-based; details: HEK293 cells stably transfected with hKv1.5; compound 10 μM, 15 min at 37° C.; fluorescence normalised with 10 μM DPO
T1 construct: expressed in transfected cells; host or cells: HEK293
Procedure: The pharmacological evaluation of the compounds on potassium channel Kv1.5 was undertaken using a 96-well plate and FLIPR technology by thallium ion measurement. The HEK293 cells, transfected in a stable manner with the human isoform of the Kv1.5 channels, are seeded 24 h before the experiment in 96-well plates ([…], 200 μl/well) with polylysine applied in the following culture medium: DMEM, 10% SVF, Penicillin/Streptomycin, G418 as the selection antibiotic.
The FLIPR experiment is undertaken using “FLIPR Potassium Ion Channel Assay Kit”, as indicated by the manufacturer (Molecular Devices).
Briefly, the culture medium is replaced by the solution containing the thallium marker for 90 min at 37° C. On conclusion of this step the compounds for testing are added to a final concentration of 10 μM in the well for 15 min at 37° C. The basic fluorescence is then read for 60 sec. The addition of depolarising medium (20 mM of potassium and 3 mM of final thallium) opens the potassium channels and causes an increase of the fluorescence of the thallium fluorophore corresponding to an influx of thallium ions through the hKv1.5 channels. The measurement is made 30 sec after the injection of the depolarising solution. The application of 10 μM DPO (Tocris, blocker of the Kv1.5 channels) enables the fluorescence to be normalised.

T1 sequence (P22460 whole entry, canonical isoform): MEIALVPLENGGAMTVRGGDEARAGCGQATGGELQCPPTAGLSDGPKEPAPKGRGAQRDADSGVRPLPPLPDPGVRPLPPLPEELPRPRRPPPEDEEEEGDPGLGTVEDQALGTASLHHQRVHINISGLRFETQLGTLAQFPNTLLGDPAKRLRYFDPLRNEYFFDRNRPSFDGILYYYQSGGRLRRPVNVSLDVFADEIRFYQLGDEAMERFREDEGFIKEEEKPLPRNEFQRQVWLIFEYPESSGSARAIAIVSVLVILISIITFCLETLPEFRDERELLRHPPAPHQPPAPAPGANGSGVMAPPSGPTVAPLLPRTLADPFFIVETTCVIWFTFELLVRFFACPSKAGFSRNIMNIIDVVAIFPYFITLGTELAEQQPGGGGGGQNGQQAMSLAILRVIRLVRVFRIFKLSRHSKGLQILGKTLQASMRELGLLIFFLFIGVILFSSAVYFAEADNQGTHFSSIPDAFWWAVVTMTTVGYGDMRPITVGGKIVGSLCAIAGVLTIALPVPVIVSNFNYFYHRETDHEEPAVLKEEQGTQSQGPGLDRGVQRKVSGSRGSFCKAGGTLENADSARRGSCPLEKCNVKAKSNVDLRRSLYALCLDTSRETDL

Row | inhibition at 10 µM [%] | % inhibition at 10 μM [%] | Compound
1 | 61.4 |  | O=C(c1ccccc1NS(=O)(=O)c1ccc(C(F)(F)F)cn1)N1CCN(c2nc3ccc(F)cc3o2)CC1 [Example 1, N-(2-(4-(6-fluorobenzo[d]oxazol-2-yl)piperazine-1-carbonyl)phenyl)-5-(trifluoromethyl)pyridine-2-sulfonamide]
2 | 100 |  | O=C(c1ccccc1NS(=O)(=O)c1ccccn1)N1CCN(c2nc3ccc(F)cc3s2)CC1 [Example 2, N-(2-(4-(6-fluorobenzo[d]thiazol-2-yl)piperazine-1-carbonyl)phenyl)-pyridine-2-sulfonamide]
3 |  | 100 | O=C(c1ccccc1NS(=O)(=O)c1ccccn1)N1CCN(c2nc3ccc(Br)cc3s2)CC1 [Example 3, N-(2-(4-(6-bromobenzo[d]thiazol-2-yl)piperazine-1-carbonyl)phenyl)-pyridine-2-sulfonamide]
4 | 90 |  | Cc1cccc2sc(N3CCN(C(=O)c4ccccc4NS(=O)(=O)c4ccccn4)CC3)nc12 [Example 5, N-(2-(4-(4-methylbenzo[d]thiazol-2-yl)piperazine-1-carbonyl)phenyl)-pyridine-2-sulfonamide]
5 | 91.8 |  | O=C(c1ccccc1NS(=O)(=O)c1ccccn1)N1CCN(c2nc3cccc(Cl)c3s2)CC1 [Example 6, N-(2-(4-(7-chlorobenzo[d]thiazol-2-yl)piperazine-1-carbonyl)phenyl)-pyridine-2-sulfonamide]
6 | 94.9 |  | O=C(c1ccccc1NS(=O)(=O)c1ccccn1)N1CCN(c2nc3cc(C(F)(F)F)ccc3s2)CC1 [Example 7, N-(2-(4-(5-(trifluoromethyl)benzo[d]thiazol-2-yl)piperazine-1-carbonyl)phenyl)pyridine-2-sulfonamide]
7 | 94.7 |  | O=C(c1ccccc1NS(=O)(=O)c1ccc(C(F)(F)F)cn1)N1CCN(c2nc3ccc(Cl)cc3s2)CC1 [Example 8, N-(2-(4-(6-chlorobenzo[d]thiazol-2-yl)piperazine-1-carbonyl)phenyl)-5-(trifluoromethyl)pyridine-2-sulfonamide]
8 | 62.8 |  | Cc1cccc(S(=O)(=O)Nc2ccccc2C(=O)N2CCN(c3nc4ccc(Br)cc4s3)CC2)n1 [Example 9, N-(2-(4-(6-bromobenzo[d]thiazol-2-yl)piperazine-1-carbonyl)phenyl)-6-methylpyridine-2-sulfonamide dihydrochloride]
9 | 58.9 |  | O=C(c1cccc(NS(=O)(=O)c2ccccn2)c1)N1CCN(c2nc3ccc(Cl)cc3o2)CC1 [Example 10, N-(3-(4-(6-chlorobenzo[d]oxazol-2-yl)piperazine-1-carbonyl)-phenyl)pyridine-2-sulfonamide]
10 | 75.1 |  | O=C(c1cccc(NS(=O)(=O)c2ccccn2)c1)N1CCN(c2nc3ccc(Cl)cc3s2)CC1 [Example 11, N-(3-(4-(6-chlorobenzo[d]thiazol-2-yl)piperazine-1-carbonyl)phenyl)-pyridine-2-sulfonamide]
11 | 52.6 |  | Cc1cccc(S(=O)(=O)Nc2cccc(C(=O)N3CCN(c4nc5ccc(Cl)cc5s4)CC3)c2)n1 [Example 12, N-(3-(4-(6-chlorobenzo[d]thiazol-2-yl)piperazine-1-carbonyl)-phenyl)-6-methylpyridine-2-sulfonamide]
12 | 100 |  | O=C(c1ccc(NS(=O)(=O)c2ccccn2)cc1)N1CCN(c2nc3ccc(F)cc3o2)CC1 [Example 13, N-(4-(4-(6-fluorobenzo[d]oxazol-2-yl)piperazine-1-carbonyl)phenyl)pyridine-2-sulfonamide]
13 | 68.7 |  | O=C(c1ccc(NS(=O)(=O)c2ccccn2)cc1)N1CCN(c2nc3ccc(Cl)cc3o2)CC1 [Example 14, N-(4-(4-(6-chlorobenzo[d]oxazol-2-yl)piperazine-1-carbonyl)phenyl)pyridine-2-sulfonamide]
14 | 70.2 |  | O=C(c1ccc(NS(=O)(=O)c2ccccn2)cc1)N1CCN(c2nc3ccc(Cl)cc3s2)CC1 [Example 15, N-(4-(4-(6-chlorobenzo[d]thiazol-2-yl)piperazine-1-carbonyl)-phenyl)pyridine-2-sulfonamide]
15 | 68 |  | O=C(c1ccccc1NS(=O)(=O)c1cccc2cccnc12)N1CCN(c2nc3ccc(Br)cc3s2)CC1 [Example 16, N-(2-(4-(6-bromobenzo[d]thiazol-2-yl)piperazine-1-carbonyl)phenyl)-quinoline-8-sulfonamide]
16 | 70.8 |  | O=C(c1ccccc1NS(=O)(=O)c1cccc2cccnc12)N1CCN(c2nc3ccc(Cl)cc3o2)CC1 [Example 17, N-(2-(4-(6-chlorobenzo[d]oxazol-2-yl)piperazine-1-carbonyl)-phenyl)quinoline-8-sulfonamide]

Row | inhibition at 10 µM [%] | % inhibition at 10 μM [%] | Compound
17 | 91.5 |  | O=C(c1ccccc1NS(=O)(=O)c1cccc2cccnc12)N1CCN(c2nc3ccc(Cl)cc3s2)CC1 [Example 18, N-(2-(4-(6-chlorobenzo[d]thiazol-2-yl)piperazine-1-carbonyl)-phenyl)quinoline-8-sulfonamide]
18 | 50.2 |  | O=C(c1ccccc1NS(=O)(=O)c1cccc2cccnc12)N1CCN(c2nc3ccc(OC(F)(F)F)cc3s2)CC1 [Example 19, N-(2-(4-(6-(trifluoromethoxy)benzo[d]thiazol-2-yl)piperazine-1-carbonyl)phenyl)quinoline-8-sulfonamide]
19 | 82.8 |  | Cc1cccc2sc(N3CCCN(C(=O)c4ccccc4NS(=O)(=O)c4cccc5cccnc45)CC3)nc12 [Example 20, N-(2-(4-(4-methylbenzo[d]thiazol-2-yl)-1,4-diazepane-1-carbonyl)-phenyl)quinoline-8-sulfonamide]
20 | 54.6 |  | Cc1ccc2nc(N3CCC(Oc4ccccc4NS(=O)(=O)c4ccccn4)CC3)oc2c1 [Example 21, N-(2-(1-(6-methylbenzo[d]oxazol-2-yl)piperidin-4-yloxy)phenyl)pyridine-2-sulfonamide]
21 | 58.8 |  | O=S(=O)(Nc1ccccc1OC1CCN(c2nc3ccc(Cl)cc3o2)CC1)c1ccccn1 [Example 22, N-(2-(1-(6-chlorobenzo[d]oxazol-2-yl)piperidin-4-yloxy)phenyl)-pyridine-2-sulfonamide]
22 | 51.8 |  | CC(C)(C)c1ccc2oc(N3CCC(Oc4ccccc4NS(=O)(=O)c4ccccn4)CC3)nc2c1 [Example 23, N-(2-(1-(5-tert-butylbenzo[d]oxazol-2-yl)piperidin-4-yloxy)phenyl)pyridine-2-sulfonamide]
23 | 81 |  | O=S(=O)(Nc1ccccc1OC1CCN(c2nc3cc(Cl)ccc3o2)CC1)c1ccccn1 [Example 24, N-(2-(1-(5-chlorobenzo[d]oxazol-2-yl)piperidin-4-yloxy)phenyl)-pyridine-2-sulfonamide]
24 | 90.2 |  | O=S(=O)(Nc1ccccc1OC1CCN(c2nc3ccccc3s2)CC1)c1ccccn1 [Example 25, N-(2-(1-(benzo[d]thiazol-2-yl)piperidin-4-yloxy)phenyl)pyridine-2-sulfonamide]
25 | 65.8 |  | O=S(=O)(Nc1ccccc1OC1CCN(c2nc3ccc(Cl)cc3s2)CC1)c1ccccn1 [Example 26]
26 | 100 |  | O=S(=O)(Nc1ccccc1OC1CCN(c2nc3ccc(Br)cc3s2)CC1)c1ccccn1 [Example 27, N-(2-(1-(6-bromobenzo[d]thiazol-2-yl)piperidin-4-yloxy)phenyl)-pyridine-2-sulfonamide]
27 | 76 |  | O=S(=O)(Nc1ccccc1OCC1CCN(c2nc3ccccc3s2)C1)c1ccccn1 (stereo not shown) [Example 28, N-(2-((1-(benzo[d]thiazol-2-yl)pyrrolidin-3-yl)methoxy)phenyl)-pyridine-2-sulfonamide]
28 | 64.5 |  | O=S(=O)(Nc1ccccc1OCC1CCN(c2nc3ccc(F)cc3s2)C1)c1ccccn1 (stereo not shown) [Example 29, N-(2-((1-(6-fluorobenzo[d]thiazol-2-yl)pyrrolidin-3-yl)methoxy)phenyl)pyridine-2-sulfonamide]
29 | 54.1 |  | O=S(=O)(Nc1ccccc1OCC1CCN(c2nc3ccc(Cl)cc3s2)C1)c1ccccn1 (stereo not shown) [Example 30, N-(2-((1-(6-chlorobenzo[d]thiazol-2-yl)pyrrolidin-3-yl)methoxy)phenyl)pyridine-2-sulfonamide]
30 | 56 |  | Cc1cccc2sc(N3CCC(COc4ccccc4NS(=O)(=O)c4ccccn4)C3)nc12 (stereo not shown) [Example 31, N-(2-((1-(4-methylbenzo[d]thiazol-2-yl)pyrrolidin-3-yl)methoxy)phenyl)pyridine-2-sulfonamide]
31 | 53.7 |  | COc1cccc2sc(N3CCC(COc4ccccc4NS(=O)(=O)c4ccccn4)C3)nc12 (stereo not shown) [Example 32, N-(2-((1-(4-methoxybenzo[d]thiazol-2-yl)pyrrolidin-3-yl)methoxy)-phenyl)pyridine-2-sulfonamide]

Row | Compound | inhibition at 10 µM [%] | % inhibition at 10 μM [%]
32 | O=C(c1ccccc1NS(=O)(=O)c1ccccn1)N1CCN(c2nc3ccc(Cl)cc3s2)CC1 [Example 4, N-(2-(4-(6-chlorobenzo[d]thiazol-2-yl)piperazine-1-carbonyl)phenyl)pyridine-2-sulfonamide hydrochloride] | 100 | 

tested on: not given; experiment: not given; details: not given

Row | melting point [°C] | Compound
33 | 180 | Cc1cccc(S(=O)(=O)Nc2ccccc2C(=O)N2CCN(c3nc4ccc(Br)cc4s3)CC2)n1 (as salt: hydrochloride) [Example 9, N-(2-(4-(6-bromobenzo[d]thiazol-2-yl)piperazine-1-carbonyl)phenyl)-6-methylpyridine-2-sulfonamide dihydrochloride]
34 | 102 | O=C(c1ccccc1NS(=O)(=O)c1ccccn1)N1CCN(c2nc3ccc(Br)cc3s2)CC1 [Example 3, N-(2-(4-(6-bromobenzo[d]thiazol-2-yl)piperazine-1-carbonyl)phenyl)-pyridine-2-sulfonamide]
